Experimental data published in patent US20160038588A1, “Myostatin Antagonism in Human Subjects” (AMGEN INC., priority 2013, published 2016).

Test system: men with prostate cancer receiving ADT
Assay: Clinical study: pharmacodynamics (DXA lean and fat mass, CT lower extremity muscle size)
Format: in vivo, human
Procedure: Eligible subjects were men with a documented history of prostate cancer; no documented distant metastasis at time of enrollment; received ADT (androgen deprivation therapy) for at least 6 months as a primary, adjuvant, or salvage treatment for prostate cancer prior to enrollment; if ADT was being administered intermittently, serum total testosterone level <50 ng/dL at screening; a stable prostate-specific antigen (PSA) as determined by the investigator; no history of primary muscle disease, myopathy, or neuropathy; weight ≦137 kg (300 lbs) and height ≦78 inches; Eastern Cooperative Oncology Group (ECOG) performance status of 0 at screening; no clinically significant elevated creatine phosphokinase (CPK); glomerular filtration rate (GFR) >40 mL/min; aspartate aminotransferase (AST) or alanine aminotransferase (ALT)<2.5× upper limit of normal.
This planned enrollment assumed a between treatment group difference of 1.5% for the secondary endpoint, percent change in lean body mass from baseline to week 5 (standard deviation of 2.1; Smith et al. 2001), and provided 80% power for a 1-sided test at the 10% significance level. An analysis of variance (ANOVA) was used to compare percent change from baseline between treatment groups (3 mg/kg AMG 745 versus placebo).
Analyses of the pharmacodynamic effects were limited to the 3-mg/kg dose cohort and the study was designed to have 80% power to detect a statistically significant between-treatment-group difference in percent change in lean body mass.

[1] = 3 mg/kg, baseline to EOS (day 29)
[2] = 3 mg/kg, baseline to follow-up visit
[3] = CT scan, least squares mean (SE)
[4] = DXA scan, ad hoc analysis, least squares mean (SE)
[5] = lean body mass minus the head, DXA scan, least squares mean (SE)

AMG 745: anti-myostatin peptibody: human IgG1 Fc fused at C-terminus via GGGGGAQ linker to peptide SEQ ID NO:311; chain SEQ ID NO:635
percent change in lean body mass, least squares mean (SE) (3 mg/kg weekly ×4, baseline to EOS (day 29)): 1.5% (0.5%) | lower extremity muscle size percent change [1]: 1.2% (0.7%) | percent change in fat body mass [1]: −0.7% (0.2%) | fat body mass, between-group difference vs placebo (3 mg/kg, baseline to EOS (day 29), p=0.005): −1.0% (0.3%) | lower extremity muscle size, between-group difference vs placebo (3 mg/kg, baseline to EOS (day 29), p=0.065): 1.8% (1.0%) | lower extremity muscle size percent change [2]: 2.7% (0.7%) | percent change in fat body mass [2]: −0.8% (0.3%) | lower extremity muscle size, between-group difference vs placebo (3 mg/kg, baseline to follow-up visit, p=0.007): 2.8% (1.0%) | percent change in lean body mass, least squares mean (SE) (3 mg/kg, follow-up visit 1 month after day 29): 1.9% (0.5%) | Lower-extremity Muscle Size, Between-group difference in percent change, Baseline to Follow-up Visit [Day 58] (AMG 745 vs placebo, CT, least squares mean (SE), p value 0.007): 2.8% (1.0%) | Lower-extremity Muscle Size, Between-group difference in percent change, Baseline to EOS [Day 29] (AMG 745 vs placebo, CT, least squares mean (SE), p value 0.065): 1.8% (1.0%) | Whole Body Fat, Between-group difference in percent change, Baseline to EOS [Day 29] (AMG 745 vs placebo, DXA, ad hoc, least squares mean (SE), p value 0.005): −1.0% (0.3%) | Whole Body Fat, Between-group difference in percent change, Baseline to Follow-up Visit [Day 58] (AMG 745 vs placebo, DXA, ad hoc, least squares mean (SE), p value 0.068): −0.7% (0.4%) | Lean Body Mass, Between-group difference in percent change, Baseline to EOS [Day 29] (AMG 745 vs placebo, DXA, least squares mean (SE), p value 0.008): 2.2% (0.8%) | Lean Body Mass, Between-group difference in percent change, Baseline to Follow-up Visit [Day 58] (AMG 745 vs placebo, DXA, least squares mean (SE), p value 0.023): 1.7% (0.7%) | Lower-extremity Muscle Size, Percent Change From Baseline to EOS [Day 29] [3]: 1.2% (0.7%) | Lower-extremity Muscle Size, Percent Change From Baseline to Follow-up Visit [Day 58] [3]: 2.7% (0.7%) | Whole Body Fat, Percent Change From Baseline to EOS [Day 29] [4]: −0.7% (0.2%) | Whole Body Fat, Percent Change From Baseline to Follow-up Visit [Day 58] [4]: −0.8% (0.3%) | Lean Body Mass, Percent Change From Baseline to EOS [Day 29] [5]: 1.5% (0.5%) | Lean Body Mass, Percent Change From Baseline to Follow-up Visit [Day 58] [5]: 1.9% (0.5%)
